# Results as given in US11285099B2, “Topical phenytoin for use in the treatment of peripheral neuropathic pain” (Topical Innovations B.V., priority 2016, dated 2022).
# “Also recorded” adds a separate entry of the source. Where two headings read alike, the source gives them in different places.
# What was measured:
# [1] = after oral administration; cited from earlier work
# [2] = tested on: peripheral neuropathic pain; assay: Patient cases: topical application on the skin, pain scored on the 11-point numerical rating scale (NRS); settings: individual patients of Cases 1-15
# [3] = partition coefficient between octanol and water; cited from earlier work
# [4] = cited from earlier work
# neuropathic pain = settings: in vivo; cited from earlier work
Structure (SMILES),analgesic effect of other or earlier treatment in the patient's history [2],Log P [3],tolerability of earlier treatment in the patient's history (words) [2],also measured
O=C(O)Cc1ccccc1Nc1c(Cl)cccc1Cl [diclofenac],,,,Cmax. of diclofenac in corresponding tissue [1]: 1160 ng/mL
NCC1(CC(=O)O)CCCCC1 [gabapentin],did not have any effect,,,
CNC1(c2ccccc2Cl)CCCCC1=O (centres unmarked) [Ketamine],,2.9,,
CN(C)CCC=C1c2ccccc2CCc2ccccc21 [amitriptyline],no effect; also recorded: did not have any analgesic effect,,induced too many side effects,
O=[N+]([O-])O[C@H]1CO[C@H]2[C@@H]1OC[C@H]2O[N+](=O)[O-] [Isosorbide dinitrate],,1.3,,
COc1cccc(C2(O)CCCCC2CN(C)C)c1 (centres unmarked) [tramadol],did not have any analgesic effect,,induced too many side effects,
CNCC[C@H](Oc1cccc2ccccc12)c1cccs1 [duloxetine],did not have any effect,,induced too many side effects,
"O=C1NC(=O)C(c2ccccc2)(c2ccccc2)N1.[Na] [phenytoin sodium, sodium 5,5-diphenyl-2,4-imidazolidinedione]",,,,"solubility in water ([4]; 37° C., pH 10): about 2 mg/ml; maximum solubility in water ([4]; 37° C., pH 11.1): about 140 mg/mL; solubility in water ([4]; 37° C., pH range between 1 and 6): 35 to 40 µg/mL; pH at which dissolvable in water in significant amounts ([4]; according to US 2009/0022779): ≥ 12 pH"
CC(C)C[C@H](CN)CC(=O)O [pregabalin],did not have any effect,,induced too many side effects,day at which significant pain reduction or relief versus placebo was shown (neuropathic pain): 2 days; median onset of action (>30% pain reduction) (neuropathic pain): 36 days; tolerability of earlier treatment in the patient's history (words) ([2]; listed as Pregabalin): too much side effects
CN(C)C(=O)C(CCN1CCC(O)(c2ccc(Cl)cc2)CC1)(c1ccccc1)c1ccccc1 [Loperamide],,5.5,,
